Laboratory results taken from publication PMC11939078, “TAK-994 mechanistic investigation into drug-induced liver injury” (Toxicological Sciences, 2025).

How the values were obtained:
human liver microtissues [1] = experiment: Glutathione depletion (BSO) assay in liver microtissues; format: cell-based; settings: for IC50: cellular ATP, 14 days
Protocol: (§1) Toxicology of TAK-994 was assessed using lnSphero’s 3D lnSight Human Liver models, based on N-acetyl-L-cysteine causality assay, glutathione depletion assay, and lipopolysaccharide (LPS)-sensitization assay. Hepatotoxicity was assessed in 7- and 14-day mono and co-culture models, in which cells were exposed to TAK-994 (0.1, 0.3, 1, 3.16, 10, 31.6, or 100 μM) […].
Co-culture model cells were pretreated with BSO (150 μM in DMSO) and then exposed to TAK-994 (0.1, 0.3, 1, 3.16, 10, 31.6, or 100 μM in 0.5% DMSO) in the presence and absence of BSO for 14 days (during the treatment period, TAK-994 with or without BSO was administered on Days 0, 5, and 9). Six replicates were tested for each condition. The vehicle control was 0.5% DMSO and the positive control was acetaminophen (0.6, 1.25, 2.5, or 5 mM in Medium TOX). Cellular ATP content was measured in the cell lysate on Day 14 of treatment. LDH release was measured on Days 5, 9, and 14 in the cell supernatant. For cells administered BSO alone, cellular ATP content was also measured on Day 3 and LDH release was also determined between Days 0 to 3. LDH measurements were normalized to lysed controls. Cellular GSH content was measured by GSH-Glo™ Glutathione Assay (Promega) on Days 0, 3, and 14 in the positive control group.
(§2) Intracellular ATP content in model lysates was measured with the CellTiter-Glo® 2.0 Cell Viability Assay (Catalogue No. G9243, Promega). The Bioluminescent LDH Release Toxicity Assay Kit (Catalogue No. J2380, Promega) was used to assess extracellular LDH release and normalized to lysed controls. ATP, LDH, GSH, and triglycerides were measured according to internal technical operating procedures.

patients with narcolepsy = experiment: Phase II studies TAK-994-1501 and TAK-994-1504
cynomolgus monkeys = experiment: Monkey 39-week oral gavage toxicity study; format: in vivo, cynomolgus monkey; settings: for Histopathological Liver Findings / ALT / AST / GLDH: monkey 39-week; for ALT / AST / GLDH: mean (SD)
Excerpt: TAK-994 performed well in tiered safety screening assays, with wide margins between in vitro IC50 and the predicted efficacious exposures (Table 1). […] Based on the safety profiles observed in these animal studies, TAK-994 progressed into phase I clinical trials.
^bAll dose levels had 4 animals per sex. No statistical difference was observed between the TAK-994 and control groups.

human liver microtissues [2] = experiment: Human liver microtissue (co-culture) cytotoxicity, cellular ATP; format: cell-based
Protocol: as §1
The test system was Human 3D InSight Liver Models, production ID hLiMT_589, cryopreserved primary human hepatocytes (Lot IPDH_18; single donor) in monoculture or in co-culture with cryopreserved primary human nonparenchymal cells (Lot IPHN_17; single donor). Human liver microtissues are composed of roughly 1000 hepatocytes and 1000 non-parenchymal live cells. Non-parenchymal liver cell fractions are expected to be composed of Kupffer cells and liver endothelial cells however, these were not identified.
The culture medium was 3D InSight Human Liver Maintenance Medium TOX (Catalogue No. CS-07-001, InSphero). The treated cells in 96-well Akura™ plates were incubated in a humidified cell culture incubator (37°C, 5% CO2).
Mono and co-culture model cells were exposed to TAK-994 (0.1, 0.3, 1, 3.16, 10, 31.6, or 100 μM in 0.5% DMSO) for 7 days (TAK-994 administered on Days 0 and 4) or 14 days (TAK-994 administered on Days 0, 5, and 9). Six replicates were tested for each condition. The vehicle control was 0.5% DMSO, and the positive control was chlorpromazine (0.1, 0.3, 1, 3.16, 10, 31.6, or 100 μM in DMSO). Cellular ATP content was measured in the cell lysate on Days 7 or 14 of treatment. LDH release was measured in the cell supernatant on Days 4 and 7 or on Days 5, 9, and 14 and normalized to lysed controls.
as §2

Question: How did the “sensitization of liver microtissues by buthionine sulfoximine depletion” value (human liver microtissues [1]) turn out when CC(C)(O)C(=O)N1CC[C@H](NS(C)(=O)=O)[C@@H]1Cc1cccc(-c2cc(F)cc(F)c2)c1F.CC(C)(O)C(=O)N1CC[C@H](NS(C)(=O)=O)[C@@H]1Cc1cccc(-c2cc(F)cc(F)c2)c1F.O.O.O [TAK-994] was run?
Answer: no such sensitivity was observed

Question: What about the IC50 (human liver microtissues [1]; glutathione depleted, read-out: IC50, liver microtissues + BSO (Fig. 4A)) of the same molecule?
Answer: > 100 µM

Question: What about the IC50 (human liver microtissues [1]; read-out: IC50, liver microtissues without BSO (Fig. 4A)) of the same molecule?
Answer: > 100 µM

Question: And the “subjects who met discontinuation criteria due to increases in liver transaminases” value (patients with narcolepsy; 90- and 180-mg BID treatment groups)?
Answer: 8

Question: And the “cases that satisfied Hy's Law criteria, diagnosed as DILI” value (patients with narcolepsy; 90 and 180 mg dose groups)?
Answer: 3

Question: And the “adverse liver findings, chronic dose toxicity study” value (cynomolgus monkeys; cynomolgus monkeys, 9-mo, up to the high dose tested of 1,000 mg/kg)?
Answer: no adverse liver findings

Question: What about the “Histopathological Liver Findings” value (cynomolgus monkeys; female, 60 mg/kg) of the same molecule?
Answer: No adverse findings

Question: What about the ALT (cynomolgus monkeys; female, 60 mg/kg) of the same molecule?
Answer: 35 (9) IU/L

Question: And the AST (cynomolgus monkeys; female, 60 mg/kg)?
Answer: 31 (6) IU/L

Question: What about the GLDH (cynomolgus monkeys; female, 60 mg/kg) of the same molecule?
Answer: 11 (2) IU/L

Question: And the “Histopathological Liver Findings” value (cynomolgus monkeys; female, 200 mg/kg)?
Answer: No adverse findings

Question: And the ALT (cynomolgus monkeys; female, 200 mg/kg)?
Answer: 28 (9) IU/L

Question: And the AST (cynomolgus monkeys; female, 200 mg/kg)?
Answer: 27 (12) IU/L

Question: What about the GLDH (cynomolgus monkeys; female, 200 mg/kg) of the same molecule?
Answer: 11 (1) IU/L

Question: And the “Histopathological Liver Findings” value (cynomolgus monkeys; female, 1000 mg/kg)?
Answer: No adverse findings

Question: What about the ALT (cynomolgus monkeys; female, 1000 mg/kg) of the same molecule?
Answer: 34 (10) IU/L

Question: And the AST (cynomolgus monkeys; female, 1000 mg/kg)?
Answer: 24 (5) IU/L

Question: What about the GLDH (cynomolgus monkeys; female, 1000 mg/kg) of the same molecule?
Answer: 12 (1) IU/L

Question: What about the “Histopathological Liver Findings” value (cynomolgus monkeys; male, 60 mg/kg) of the same molecule?
Answer: No adverse findings

Question: What about the ALT (cynomolgus monkeys; male, 60 mg/kg) of the same molecule?
Answer: 42 (20) IU/L

Question: And the AST (cynomolgus monkeys; male, 60 mg/kg)?
Answer: 30 (12) IU/L

Question: And the GLDH (cynomolgus monkeys; male, 60 mg/kg)?
Answer: 12 (3) IU/L

Question: What about the “Histopathological Liver Findings” value (cynomolgus monkeys; male, 200 mg/kg) of the same molecule?
Answer: No adverse findings

Question: What about the ALT (cynomolgus monkeys; male, 200 mg/kg) of the same molecule?
Answer: 32 (2) IU/L

Question: What about the AST (cynomolgus monkeys; male, 200 mg/kg) of the same molecule?
Answer: 23 (7) IU/L

Question: What about the GLDH (cynomolgus monkeys; male, 200 mg/kg) of the same molecule?
Answer: 13 (1) IU/L

Question: What about the “Histopathological Liver Findings” value (cynomolgus monkeys; male, 1000 mg/kg) of the same molecule?
Answer: No adverse findings

Question: And the ALT (cynomolgus monkeys; male, 1000 mg/kg)?
Answer: 33 (9) IU/L

Question: What about the AST (cynomolgus monkeys; male, 1000 mg/kg) of the same molecule?
Answer: 22 (4) IU/L

Question: What about the GLDH (cynomolgus monkeys; male, 1000 mg/kg) of the same molecule?
Answer: 13 (3) IU/L

Question: And the “loss of cellular ATP” value (human liver microtissues [2]; 100 µM TAK-994, presence of nonparenchymal cells)?
Answer: ~50%

Question: And the “liver microtissue IC50 relative to clinical Cmax” value (human liver microtissues [2]; 14 days, Cmax in patients dosed at 90 mg)?
Answer: > 100 fold

Question: And the IC50 (human liver microtissues [2]; cellular ATP, read-out: IC50, liver microtissues (Fig. 2B))?
Answer: > 100 µM
